Test results published in patent publication US20240109900A1, “AZABICYCLIC SHP2 INHIBITORS” (IRBM S.P.A., priority 2021, published 2024).
Like-named read-outs stand apart in the source and are kept apart here.

Key:
[1] = biological target: SHP-2 enzyme (Met1-Leu525) (Homo sapiens (Human), UniProt Q06124); test: SHP2 inhibition enzymatic assay; format: biochemical; conditions: 75 μM DiFMUP substrate
Summary of the method: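 Compounds were preincubated 30 min with 0.5 nM SHP-2 (Met1-Leu525) plus 500 nM IRS1 activating peptide (pH 7.2 HEPES, 5 mM DTT), then 75 μM DiFMUP substrate reacted 30 min at room temperature. After bpV quench, DiFMUP fluorescence gave % inhibition; four-parameter logistic fit yielded IC50.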

[2] = test system: ERK phosphorylation in KYSE-520 cells; test: Phospho-ERK cellular assay; format: cell-based; conditions: read-out: PERK IC50
Summary of the method: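 TR-FRET read-out of ERK1/2 Thr202/Tyr204 phosphorylation was taken after overnight antibody incubation at room temperature. Before that, KYSE-520 cells were treated 2 h at 37 °C with compound dilutions and lysed 30 min. Percent inhibition relative to vehicle and cell-free wells was fitted four-parametrically to give IC50.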

[3] = 0.5 nM SHP-2 activated by 500 nM IRS1 peptide, read-out: SHP2wt-IC50
[4] = Homo sapiens, KYSE-520, 2 h, KYSE-520 cells, 2 h at 37° C., phospho-ERK1/2 (Thr202/Tyr204) TR-FRET
[5] = KYSE-520 cells, 2 h at 37° C., phospho-ERK1/2 (Thr202/Tyr204) TR-FRET

Sequence of SHP-2 enzyme (Met1-Leu525) (Q06124 1-525): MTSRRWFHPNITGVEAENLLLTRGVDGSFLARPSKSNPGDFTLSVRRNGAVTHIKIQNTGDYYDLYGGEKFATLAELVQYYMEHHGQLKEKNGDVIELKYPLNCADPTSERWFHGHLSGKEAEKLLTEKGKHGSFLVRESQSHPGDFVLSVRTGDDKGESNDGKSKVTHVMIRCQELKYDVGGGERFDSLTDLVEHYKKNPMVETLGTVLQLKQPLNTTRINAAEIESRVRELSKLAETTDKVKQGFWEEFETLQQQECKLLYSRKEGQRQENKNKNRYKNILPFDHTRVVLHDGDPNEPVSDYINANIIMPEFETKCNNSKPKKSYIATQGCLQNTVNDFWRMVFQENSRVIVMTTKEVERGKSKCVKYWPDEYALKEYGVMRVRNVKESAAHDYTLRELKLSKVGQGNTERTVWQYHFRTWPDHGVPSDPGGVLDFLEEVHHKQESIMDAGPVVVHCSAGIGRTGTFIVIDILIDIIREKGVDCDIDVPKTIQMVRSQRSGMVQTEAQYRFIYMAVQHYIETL

| Compound | IC50 [1, 3] | IC50 [2, 4] | IC50 [2, 5] | IC50 ([1]; SHP2wt-IC50, 0.5 nM SHP-2 activated by 500 nM IRS1 peptide) | IC50 ([2]; Homo sapiens, KYSE-520, 2 h) |
| --- | --- | --- | --- | --- | --- |
| Cc1cc(C2(CN)C3CCN(c4cnc5c(-c6ccc(Cl)c7ncccc67)n[nH]c5n4)CC32)no1 (stereo not drawn) [Example 33, (3-(3-(8-chloroquinolin-5-yl)-1H-pyrazolo[3,4-b]pyrazin-6-yl)-7-(5-methylisoxazol-3-yl)-3-azabicyclo[4.1.0]heptan-7-yl)methanamine] | < 0.5 µM | < 1 µM | – | – | – |
| COc1nccc(-c2n[nH]c3nc(N4CC[C@@H]5[C@H](C4)[C@@]5(CN)c4ccccc4F)cnc23)c1Cl [Example 500] | < 0.5 µM | – | < 1 µM | – | – |
| NC[C@]1(c2ccccc2F)[C@@H]2CCN(c3cnc4c(-c5cc6c(cc5Cl)NC(=O)C6=O)n[nH]c4n3)C[C@@H]21 [Example 375, 5-(6-((1S,6R,7R)-7-(aminomethyl)-7-(2-fluorophenyl)-3-azabicyclo[4.1.0]heptan-3-yl)-1H-pyrazolo[3,4-b]pyrazin-3-yl)-6-chloroindoline-2,3-dione] | < 0.5 µM | < 1 µM | – | – | – |
| NC[C@]1(c2ccccc2F)[C@@H]2CCN(c3cnc4c(-c5ccc6nn(CC(F)(F)F)cc6c5Cl)n[nH]c4n3)C[C@@H]21 [Example 361, ((1S,6R,7R)-3-(3-(4-chloro-2-(2,2,2-trifluoroethyl)-2H-indazol-5-yl)-1H-pyrazolo[3,4-b]pyrazin-6-yl)-7-(2-fluorophenyl)-3-azabicyclo[4.1.0]heptan-7-yl)methanamine] | < 0.5 µM | < 1 µM | – | – | – |
| NC[C@]1(c2ccccc2F)[C@@H]2CCN(c3cnc4c(N5CC6(CCC6)c6ncccc65)n[nH]c4n3)C[C@@H]21 [Example 270, ((1S,6R,7R)-7-(2-fluorophenyl)-3-(3-(spiro[cyclobutane-1,3′-pyrrolo[3,2-b]pyridin]-1′(2′H)-yl)-1H-pyrazolo[3,4-b]pyrazin-6-yl)-3-azabicyclo[4.1.0]heptan-7-yl)methanamine] | < 0.5 µM | < 1 µM | – | – | – |
| NC[C@]1(c2ccccc2F)[C@@H]2CCN(c3cnc4c(-c5ccc(C(N)=O)c(Cl)c5Cl)n[nH]c4n3)C[C@@H]21 [Example 241, 4-(6-((1S,6R,7R)-7-(aminomethyl)-7-(2-fluorophenyl)-3-azabicyclo[4.1.0]heptan-3-yl)-1H-pyrazolo[3,4-b]pyrazin-3-yl)-2,3-dichlorobenzamide] | < 0.5 µM | < 1 µM | – | – | – |
| Cc1csc(C2(CN)C3CCN(c4cnc5c(-c6ccc(S(=O)(=O)F)c7ccccc67)n[nH]c5n4)CC32)n1 (stereo not drawn) [Example 443, 4-(6-(7-(aminomethyl)-7-(4-methylthiazol-2-yl)-3-azabicyclo[4.1.0]heptan-3-yl)-1H-pyrazolo[3,4-b]pyrazin-3-yl)naphthalene-1-sulfonyl fluoride] | – | – | – | 0.5 to 3 µM | < 1 µM |
| Cc1cc(C2(CN)C3CCN(c4cnc5c(N6CCCc7ncccc76)n[nH]c5n4)CC32)no1 (stereo not drawn) [Example 60, (3-(3-(3,4-dihydro-1,5-naphthyridin-1(2H)-yl)-1H-pyrazolo[3,4-b]pyrazin-6-yl)-7-(5-methylisoxazol-3-yl)-3-azabicyclo[4.1.0]heptan-7-yl)methanamine] | < 0.5 µM | < 1 µM | – | – | – |
| COc1ccc(-c2n[nH]c3nc(N4CCC5C(C4)C5(CN)c4cc(C)on4)cnc23)c2cccnc12 (stereo not drawn) [Example 22, (3-(3-(8-methoxyquinolin-5-yl)-1H-pyrazolo[3,4-b]pyrazin-6-yl)-7-(5-methylisoxazol-3-yl)-3-azabicyclo[4.1.0]heptan-7-yl)methanamine] | < 0.5 µM | < 1 µM | – | – | – |
| Cc1csc([C@@]2(CN)[C@@H]3CN(c4cnc5c(-c6ccc7nsnc7c6Cl)n[nH]c5n4)C[C@@H]32)n1 [Example 467] | < 0.5 µM | – | < 1 µM | – | – |
| Cc1csc(C2(CN)C3CCN(c4nc5[nH]nc(-c6cccc7ncccc67)c5nc4CO)CC32)n1 (stereo not drawn) [Example 101, (6-(7-(aminomethyl)-7-(4-methylthiazol-2-yl)-3-azabicyclo[4.1.0]heptan-3-yl)-3-(quinolin-5-yl)-1H-pyrazolo[3,4-b]pyrazin-5-yl)methanol] | < 0.5 µM | < 1 µM | – | – | – |
| Cn1cc(C2(CN)C3CCN(c4cnc5c(-c6cccc(Cl)c6Cl)n[nH]c5n4)CC32)nn1 (stereo not drawn) [Example 13, (3-(3-(2,3-dichlorophenyl)-1H-pyrazolo[3,4-b]pyrazin-6-yl)-7-(1-methyl-1H-1,2,3-triazol-4-yl)-3-azabicyclo[4.1.0]heptan-7-yl)methanamine] | < 0.5 µM | < 1 µM | – | – | – |
| Cc1csc([C@@]2(CN)[C@@H]3CN(c4cnc5c(-c6ccc7nscc7c6Cl)n[nH]c5n4)C[C@@H]32)n1 [Example 463] | < 0.5 µM | – | < 1 µM | – | – |
| Cn1cc2c(Cl)c(-c3n[nH]c4nc(N5C[C@@H]6[C@H](C5)[C@@]6(CN)c5ccccn5)cnc34)ccc2n1 [Example 491, ((1R,5S,6r)-3-(3-(4-chloro-2-methyl-2H-indazol-5-yl)-1H-pyrazolo[3,4-b]pyrazin-6-yl)-6-(pyridin-2-yl)-3-azabicyclo[3.1.0]hexan-6-yl)methanamine] | < 0.5 µM | < 1 µM | – | – | – |
| Cc1csc([C@@]2(CN)[C@@H]3CN(c4cnc5nc(Sc6ccnc(N)c6Cl)ccc5n4)C[C@@H]32)n1 [Example 497, 4-((2-((1R,5S,6r)-6-(aminomethyl)-6-(4-methylthiazol-2-yl)-3-azabicyclo[3.1.0]hexan-3-yl)pyrido[2,3-b]pyrazin-6-yl)thio)-3-chloropyridin-2-amine] | < 0.5 µM | < 1 µM | – | – | – |

Now from value to compound, other results behind:

| IC50 [1, 3] | IC50 [2, 4] | IC50 [2, 5] | Compound | IC50 ([1]; SHP2wt-IC50, 0.5 nM SHP-2 activated by 500 nM IRS1 peptide) | IC50 ([2]; Homo sapiens, KYSE-520, 2 h) |
| --- | --- | --- | --- | --- | --- |
| < 0.5 µM | > 5 µM | – | NC[C@]1(c2ccccc2F)[C@@H]2CCN(c3cnc4c(-c5ccc(S(N)(=O)=O)cc5Cl)n[nH]c4n3)C[C@@H]21 [Example 346, 4-(6-((1S,6R,7R)-7-(aminomethyl)-7-(2-fluorophenyl)-3-azabicyclo[4.1.0]heptan-3-yl)-1H-pyrazolo[3,4-b]pyrazin-3-yl)-3-chlorobenzenesulfonamide] | – | – |
| < 0.5 µM | < 1 µM | – | NC[C@]1(c2ccccc2F)[C@@H]2CCN(c3cnc4c(-c5ccc6n[nH]cc6c5Cl)n[nH]c4n3)C[C@@H]21 [Example 243, ((1S,6R,7R)-3-(3-(4-chloro-2H-indazol-5-yl)-1H-pyrazolo[3,4-b]pyrazin-6-yl)-7-(2-fluorophenyl)-3-azabicyclo[4.1.0]heptan-7-yl)methanamine] | – | – |
| < 0.5 µM | < 1 µM | – | COc1cccc2c(-c3n[nH]c4nc(N5CC[C@@H]6[C@H](C5)[C@@]6(CN)c5ccccc5F)cnc34)ccnc12 [Example 166, ((1S,6R,7R)-7-(2-fluorophenyl)-3-(3-(8-methoxyquinolin-4-yl)-1H-pyrazolo[3,4-b]pyrazin-6-yl)-3-azabicyclo[4.1.0]heptan-7-yl)methanamine] | – | – |
| < 0.5 µM | < 1 µM | – | NC[C@]1(c2ccccc2F)[C@@H]2CCN(c3cnc4c(-c5ccnc(N)c5Cl)n[nH]c4n3)C[C@@H]21 [Example 105, 4-(6-((1S,6R,7R)-7-(aminomethyl)-7-(2-fluorophenyl)-3-azabicyclo[4.1.0]heptan-3-yl)-1H-pyrazolo[3,4-b]pyrazin-3-yl)-3-chloropyridin-2-amine] | – | – |
| < 0.5 µM | < 1 µM | – | NC[C@]1(c2ccccc2F)[C@@H]2CCN(c3cnc4c(-c5ccc6cnccc6c5)n[nH]c4n3)C[C@@H]21 [Example 247, ((1S,6R,7R)-7-(2-fluorophenyl)-3-(3-(isoquinolin-6-yl)-1H-pyrazolo[3,4-b]pyrazin-6-yl)-3-azabicyclo[4.1.0]heptan-7-yl)methanamine] | – | – |
| < 0.5 µM | < 1 µM | – | NC[C@]1(c2ccccc2F)[C@@H]2CCN(c3cnc4c(-c5ccc(-c6noc(O)n6)cc5Cl)n[nH]c4n3)C[C@@H]21 [Example 295, 3-(4-(6-((1S,6R,7R)-7-(aminomethyl)-7-(2-fluorophenyl)-3-azabicyclo[4.1.0]heptan-3-yl)-1H-pyrazolo[3,4-b]pyrazin-3-yl)-3-chlorophenyl)-1,2,4-oxadiazol-5-ol] | – | – |
| < 0.5 µM | < 1 µM | – | N#Cc1ccc(-c2n[nH]c3nc(N4CC[C@@H]5[C@H](C4)[C@@]5(CN)c4ccccc4F)cnc23)c(Cl)c1 [Example 245, 4-(6-((1S,6R,7R)-7-(aminomethyl)-7-(2-fluorophenyl)-3-azabicyclo[4.1.0]heptan-3-yl)-1H-pyrazolo[3,4-b]pyrazin-3-yl)-3-chlorobenzonitrile] | – | – |
| < 0.5 µM | < 1 µM | – | Cn1cc(-c2ccc(-c3n[nH]c4nc(N5CC[C@@H]6[C@H](C5)[C@@]6(CN)c5ccccc5F)cnc34)c(Cl)c2)cn1 [Example 297, ((1S,6R,7R)-3-(3-(2-chloro-4-(1-methyl-1H-pyrazol-4-yl)phenyl)-1H-pyrazolo[3,4-b]pyrazin-6-yl)-7-(2-fluorophenyl)-3-azabicyclo[4.1.0]heptan-7-yl)methanamine] | – | – |
| < 0.5 µM | < 1 µM | – | CS(=O)(=O)c1ccc(-c2n[nH]c3nc(N4CC[C@@H]5[C@H](C4)[C@@]5(CN)c4ccccc4F)cnc23)c2cccnc12 [Example 521, ((1S,6R,7R)-7-(2-fluorophenyl)-3-(3-(8-(methylsulfonyl)quinolin-5-yl)-1H-pyrazolo[3,4-b]pyrazin-6-yl)-3-azabicyclo[4.1.0]heptan-7-yl)methanamine] | – | – |
